In ChEMBL document CHEMBL3880421, “Indazole compounds and pharmaceutical compositions for inhibiting protein kinases, and methods for their use” (2003):

How the values were obtained:
[1] = Antiproliferative activity against VEGF-stimulated HUVEC cells assessed as reduction in cell viability at 0.5 nM preincubated for 1 hr followed by addition of VEGF measured after 72 hrs by MTT assay; type: functional; conditions: Homo sapiens
[2] = Antiproliferative activity against VEGF-stimulated HUVEC cells assessed as reduction in cell viability at 2 nM preincubated for 1 hr followed by addition of VEGF measured after 72 hrs by MTT assay; type: functional; conditions: Homo sapiens

Row | SMILES | inhibition at 0.0005 µM [1] | inhibition at 0.002 µM [2]
1 | NC(=O)[C@H](CO)NC(=O)c1ccccc1Nc1ccc2c(/C=C/c3ccccn3)n[nH]c2c1 | 17% | 4%
2 | O=C(NCCc1ccncc1)c1ccccc1Nc1ccc2c(/C=C/c3ccccn3)n[nH]c2c1 | 18% | 22%
3 | NC(=O)C[C@@H](NC(=O)c1ccccc1Nc1ccc2c(/C=C/c3ccccn3)n[nH]c2c1)C(N)=O | 21% | 15%
4 | CCCNC(=O)c1ccccc1Nc1ccc2c(/C=C/c3ccccn3)n[nH]c2c1 | 33% | 64%
5 | Cn1cccc1C(=O)NNC(=O)c1ccccc1Nc1ccc2c(/C=C/c3ccccn3)n[nH]c2c1 | 68% | 49%
6 | O=C(NCC(F)(F)F)c1ccccc1Nc1ccc2c(/C=C/c3ccccn3)n[nH]c2c1 | 34 to 53% | 61 to 95%
7 | O=C(NNC1=NCCN1)c1ccccc1Nc1ccc2c(/C=C/c3ccccn3)n[nH]c2c1 | 34% | 69%
8 | O=C(Nc1cc[nH]n1)c1ccccc1Nc1ccc2c(/C=C/c3ccccn3)n[nH]c2c1 | 20% | 25%
9 | NS(=O)(=O)c1ccc(CCNC(=O)c2ccccc2Nc2ccc3c(/C=C/c4ccccn4)n[nH]c3c2)cc1 | 26% | 37%
10 | O=C(NNC(=O)c1ccccc1Nc1ccc2c(/C=C/c3ccccn3)n[nH]c2c1)c1cccs1 | 65% | 90%
11 | O=C(NOCC(=O)N1CCOCC1)c1ccccc1Nc1ccc2c(/C=C/c3ccccn3)n[nH]c2c1 | 15% | -1%
12 | CN(C)c1ccc(CNC(=O)c2ccccc2Nc2ccc3c(/C=C/c4ccccn4)n[nH]c3c2)cc1 | 32% | 24%
13 | N#CCONC(=O)c1ccccc1Nc1ccc2c(/C=C/c3ccccn3)n[nH]c2c1 | 16% | 2%
14 | Cc1cc(NC(=O)c2ccccc2Nc2ccc3c(/C=C/c4ccccn4)n[nH]c3c2)on1 | 26% | 31%
15 | CCOC(CNC(=O)c1ccccc1Nc1ccc2c(/C=C/c3ccccn3)n[nH]c2c1)OCC | 11% | 47%
16 | Cc1cc(NNC(=O)c2ccccc2Nc2ccc3c(/C=C/c4ccccn4)n[nH]c3c2)nc(C)n1 | 32% | 35%
17 | CCCCN(CCCC)CCCNC(=O)c1ccccc1Nc1ccc2c(/C=C/c3ccccn3)n[nH]c2c1 | 32% | 10%
18 | CC(C)(C)c1cc(NC(=O)c2ccccc2Nc2ccc3c(/C=C/c4ccccn4)n[nH]c3c2)no1 | 15% | 4%
19 | O=C(NCCN1CCCC1)c1ccccc1Nc1ccc2c(/C=C/c3ccccn3)n[nH]c2c1 | 40% | 31%
20 | O=C(O)CCCNC(=O)c1ccccc1Nc1ccc2c(/C=C/c3ccccn3)n[nH]c2c1 | 16% | 20%
21 | O=C(Cc1ccccc1)NNC(=O)c1ccccc1Nc1ccc2c(/C=C/c3ccccn3)n[nH]c2c1 | 31% | 66%
22 | O=C(NCCCN1CCOCC1)c1ccccc1Nc1ccc2c(/C=C/c3ccccn3)n[nH]c2c1 | 5% | 14%
23 | O=C(NCCN1CCNCC1)c1ccccc1Nc1ccc2c(/C=C/c3ccccn3)n[nH]c2c1 | 37% | 12%

Row | SMILES | inhibition at 0.0005 µM [1] | inhibition at 0.002 µM [2]
24 | CN(C)CC(=O)NNC(=O)c1ccccc1Nc1ccc2c(/C=C/c3ccccn3)n[nH]c2c1 | 41% | 16%
25 | CCN1CCC[C@H]1CNC(=O)c1ccccc1Nc1ccc2c(/C=C/c3ccccn3)n[nH]c2c1 | 15% | 23%
26 | C[C@H](CO)NC(=O)c1ccccc1Nc1ccc2c(/C=C/c3ccccn3)n[nH]c2c1 | 13% | 20%
27 | O=C(NNC(=O)c1ccccc1Nc1ccc2c(/C=C/c3ccccn3)n[nH]c2c1)c1ccc[nH]1 | 60% | 99%
28 | O=C(NCCCO)c1ccccc1Nc1ccc2c(/C=C/c3ccccn3)n[nH]c2c1 | 8 to 24% | 23 to 31%
29 | CC(NC(=O)c1ccccc1Nc1ccc2c(/C=C/c3ccccn3)n[nH]c2c1)c1ccccc1 (centres undefined) | 30% | 94%
30 | CCCCCCC(C)NC(=O)c1ccccc1Nc1ccc2c(/C=C/c3ccccn3)n[nH]c2c1 (centres undefined) | 35% | 63%
31 | O=C(NCCN(CCO)CCO)c1ccccc1Nc1ccc2c(/C=C/c3ccccn3)n[nH]c2c1 | 10% | 23%
32 | O=C(NN1CCCCC1)c1ccccc1Nc1ccc2c(/C=C/c3ccccn3)n[nH]c2c1 | 27% | 17%
33 | CSc1nc(NC(=O)c2ccccc2Nc2ccc3c(/C=C/c4ccccn4)n[nH]c3c2)nn1C | 16% | 2%
34 | Cc1ncc(CNC(=O)c2ccccc2Nc2ccc3c(/C=C/c4ccccn4)n[nH]c3c2)c(N)n1 | 16% | 17%
35 | O=C(Nc1nnn[nH]1)c1ccccc1Nc1ccc2c(/C=C/c3ccccn3)n[nH]c2c1 | 21 to 39% | 18 to 64%
36 | CC(C)(C)ONC(=O)c1ccccc1Nc1ccc2c(/C=C/c3ccccn3)n[nH]c2c1 | -3% | 64%
37 | Nc1ccc(CNC(=O)c2ccccc2Nc2ccc3c(/C=C/c4ccccn4)n[nH]c3c2)cc1 | 45% | 88%
38 | O=C(NNC(=O)c1ccccc1Nc1ccc2c(/C=C/c3ccccn3)n[nH]c2c1)c1ccccc1O | 30% | 61%
39 | O=C(NCCC1=CCCCC1)c1ccccc1Nc1ccc2c(/C=C/c3ccccn3)n[nH]c2c1 | 24% | 86%
40 | CCN(CC)C/C=C/CNC(=O)c1ccccc1Nc1ccc2c(/C=C/c3ccccn3)n[nH]c2c1 | 10% | 29%
41 | CC(C)CC(C)NC(=O)c1ccccc1Nc1ccc2c(/C=C/c3ccccn3)n[nH]c2c1 (centres undefined) | 55% | 50%
42 | O=C(NCCCCc1ccccc1)c1ccccc1Nc1ccc2c(/C=C/c3ccccn3)n[nH]c2c1 | 51% | 67%
43 | CC(C)(C)OC(=O)NCCNC(=O)c1ccccc1Nc1ccc2c(/C=C/c3ccccn3)n[nH]c2c1 | 78% | 60%
44 | CCN(CCNC(=O)c1ccccc1Nc1ccc2c(/C=C/c3ccccn3)n[nH]c2c1)c1cccc(C)c1 | 17% | 1%
45 | Cc1cc(NC(=O)c2ccccc2Nc2ccc3c(/C=C/c4ccccn4)n[nH]c3c2)n(C)n1 | 39% | 13%
46 | CCCCC(CC)CNC(=O)c1ccccc1Nc1ccc2c(/C=C/c3ccccn3)n[nH]c2c1 (centres undefined) | 28% | 47%

Row | SMILES | inhibition at 0.0005 µM [1] | inhibition at 0.002 µM [2]
47 | Cc1noc(NC(=O)c2ccccc2Nc2ccc3c(/C=C/c4ccccn4)n[nH]c3c2)c1C | 15% | 36%
48 | O=C(NCCO)c1ccccc1Nc1ccc2c(/C=C/c3ccccn3)n[nH]c2c1 | 18% | 24%
49 | N=C(N)CNC(=O)c1ccccc1Nc1ccc2c(/C=C/c3ccccn3)n[nH]c2c1 | 7% | -1%
50 | O=C(NN1CCN(CCO)CC1)c1ccccc1Nc1ccc2c(/C=C/c3ccccn3)n[nH]c2c1 | 25% | 25%
51 | COCC(C)NC(=O)c1ccccc1Nc1ccc2c(/C=C/c3ccccn3)n[nH]c2c1 (centres undefined) | 18% | 32%
52 | O=C(N[C@H](CO)Cc1c[nH]cn1)c1ccccc1Nc1ccc2c(/C=C/c3ccccn3)n[nH]c2c1 | 22% | 24%
53 | COCCCNC(=O)c1ccccc1Nc1ccc2c(/C=C/c3ccccn3)n[nH]c2c1 | 26% | 31%
54 | CN(C)CCNC(=O)c1ccccc1Nc1ccc2c(/C=C/c3ccccn3)n[nH]c2c1 | 20% | 10%
55 | CN(NC(=O)c1ccccc1Nc1ccc2c(/C=C/c3ccccn3)n[nH]c2c1)C(N)=S | 12% | 29%
56 | O=C(NC1CCN(Cc2ccccc2)CC1)c1ccccc1Nc1ccc2c(/C=C/c3ccccn3)n[nH]c2c1 | 44% | 19%
57 | O=C(NC1CCCCCCC1)c1ccccc1Nc1ccc2c(/C=C/c3ccccn3)n[nH]c2c1 | 14% | 60%
58 | O=C(NCC(O)c1ccccc1)c1ccccc1Nc1ccc2c(/C=C/c3ccccn3)n[nH]c2c1 (centres undefined) | 12% | 55%
59 | CN(C)NC(=O)c1ccccc1Nc1ccc2c(/C=C/c3ccccn3)n[nH]c2c1 | 31% | 20%
60 | Cc1ccccc1CNC(=O)c1ccccc1Nc1ccc2c(/C=C/c3ccccn3)n[nH]c2c1 | 24% | 99%
61 | CCCCC(=O)NNC(=O)c1ccccc1Nc1ccc2c(/C=C/c3ccccn3)n[nH]c2c1 | 40% | 94%
62 | CC(CN(C)C)NC(=O)c1ccccc1Nc1ccc2c(/C=C/c3ccccn3)n[nH]c2c1 (centres undefined) | 23% | 17%
63 | O=C(NCCCN1CCCCC1)c1ccccc1Nc1ccc2c(/C=C/c3ccccn3)n[nH]c2c1 | 16% | 7%
64 | O=C(NCP(=O)(O)O)c1ccccc1Nc1ccc2c(/C=C/c3ccccn3)n[nH]c2c1 | 32% | 6%
65 | CC(C)CCCC(C)NC(=O)c1ccccc1Nc1ccc2c(/C=C/c3ccccn3)n[nH]c2c1 (centres undefined) | 20% | 32%
66 | C=CCONC(=O)c1ccccc1Nc1ccc2c(/C=C/c3ccccn3)n[nH]c2c1 | 51 to 92% | 103 to 108%
67 | COC[C@@H]1CCCN1NC(=O)c1ccccc1Nc1ccc2c(/C=C/c3ccccn3)n[nH]c2c1 | 13% | 7%
